In patent publication US20150344535A1, “NEUROTROPHIN-TYROSINE KINASE RECEPTOR SIGNALING” (THE UNIVERSITY OF QUEENSLAND, priority 2012, published 2015):

Columns and labels:
TrkA = assay: Biotinylated peptide pull down of TrkA; assay type: binding; details: lysate of transfected HEK293 cells, FIG. 4D
Procedure: For peptide pull down assays, the biotinylated c29 or LC1 control peptides were incubated with protein A-sepharose beads or Dynabeads MyOne Streptavidin T1 (Invitrogen) overnight at 4° C. Cell lysates were then added to the peptide-protein A-sepharose complex or Dynabeads MyOne Streptavidin T1 and incubated for 3 hours at 4° C. Peptide-receptor complexes were washed extensively with RIPA lysis buffer and eluted by boiling in Laemmli sample buffer. For p75^NTR construct immunoprecipitations, HEK293 cells were treated with NGF at 50 ng/ml for 10 minutes 48 hours after transfection with 1 μg DNA per well. Cells were immediately harvested in ice-cold phosphate buffered saline (PBS) and washed twice, then lysed in 1 ml of lysis buffer. Cell lysates were pre-cleared in 75 μl (1:2) protein-G sepharose: PBS by rotation end-over-end for 2 hours at 4′C. Lysates were then incubated with 3-5 μg antibody, either mouse-anti-YFP/GFP (Roche) or rabbit-anti-human p75^NTR intracellular domain antibody (Promega), and rotated end-over-end for 2 hours at 4° C.
Immunoprecipitation was performed by the addition of 75 μl (1:2) protein-G sepharose: PBS and incubation end-over-end for 16 hours at 4° C. The immunoprecipitate was washed 4 times with 1 ml of PBS then eluted in 60 μl 2×LDS sample buffer. For immunoblotting, samples were boiled for 5 minutes, separated by SDS-PAGE and transferred onto nitrocellulose membranes, then western blotted using standard protocols (see Example 1 for antibodies used).
The c29 peptide was labelled with biotin and attached to a sepharose bead column. Lysates from cells was passed over the column followed by several wash steps. The proteins that bound to the c29 peptide (proteins that are pulled down) were eluted from the column with SDS buffer and separated in size by SDS-PAGE electrophoresis. The gel was Western blotted and the membrane probed with antibodies to proteins of interest.

PC12 cells = assay: NGF-FITC binding by flow cytometry, PC12 cells; details: for % of cell population with FITC above background / Maximal fluorescence per cell of the population / Mean fluorescence per FITC-positive cell / Median population fluorescence: NGF-FITC
Procedure: The NGF was conjugated to FITC by standard methods and detailed flow cytometry acquisition and analysis. For NGF-FITC conjugation 400 μg βNGF in 200 μl pH 8.5 NaHCO3 buffer was mixed with 5-10 μl of 10 mg/ml FITC in 100 μl DMSO for 10 hours at 4° C. on an orbital shaker set to 100 rpm. The excess FITC was removed by dialysis against 3 changes of 5 L of 10 mM Tris, 150 mM NaCl, 0.2% acetic acid, pH 8.2 for 24 hours at 4° C. Conjugate F/P characterization was determined by measuring absorbance at 280 nm and 495 nm according to manufacturer's instructions. Biological activity of the NGF-FITC conjugate was tested by performing PC12 cell neurite outgrowth assays unlabelled NGF, and comparing the levels of neuritogenesis. NGF-FITC conjugates were used within 4 weeks of synthesis.
For the flow cytometry NGF binding assays, fluorescence cell parameters of at least 20,000 events for PC12 cells and 100,000 events for HEK293 cells were acquired by flow cytometry list mode and measurements were performed on a single cell basis (with compensation for double event counting). Dead cells and debris were gated out of the analysis on the basis of forward scatter fluorescence, and mean, median and maximal fluorescence values of the gated cell populations were analysed using FACS Diva Software (Becton-Dickinson Biosciences) and FACS Express Software (Becton-Dickinson Biosciences).
Background fluorescence of HEK293 cells was non-transfected cells (±c29 or scrambled peptide treatment) treated with 26 nM NGF-FITC. For PC12 cells, the control population was cells that had not been treated with NGF-FITC. Analysis of real-time NGF-FITC receptor binding experiments was performed on 550,000-600,000 cells at 4° C. in serum free NB medium and binding kinetics were calculated from raw data files compressed to 50,000 binding events using FlowJo and MatLab Software. Data was plotted with the use of GraphPad Prism.
Only NGF-FITC preparations that promoted equivalent neurite outgrowth of PC12 cells to that of unlabelled NGF were used in binding experiments. To investigate NGF binding, PC12 or transfected HEK293 cells were serum starved for 4 hours, harvested, washed with Dulbecco's Modified Eagle Medium (DMEM), and counted. When used, c29 or scrambled peptide were added to cultures for the third hour of the serum starvation procedure. 1×10^7 cells/ml suspended in 500 μl of serum-free DMEM were incubated with 26 nM NGF-FITC on ice for 60 minutes before analysis. For binding competition assays, following 1 hour in NGF-FITC, cells were washed with ice-cold PBS containing 0.1% normal bovine serum and incubated on ice with unlabeled NGF at concentrations ranging from 100 pM to 10 μM for 30 minutes, then washed twice in PBS before being analysed on a BD Flow Cytometer FACS Scan (Becton-Dickinson).
First, to determine the concentration of c29 required to modulate NGF binding, c29 levels were titrated with a fixed concentration of NGF-FITC.

KRWNSCKQNKQGANSRPVNQTPPPEGEKL (c29- Fragment of p75ICD) [29 amino acid peptide of the p75NTR juxtamembrane Chopper domain; delivered to cells linked to PTD4 or disulfide-linked carrier]
pull down of TrkA (TrkA): able to pull down TrkA
% of cell population with FITC above background (PC12 cells; c.f. PC12): 115.7 ± 19.7%
Maximal fluorescence per cell of the population (PC12 cells; c.f. PC12): 123.6 ± 17.3%
Mean fluorescence per FITC-positive cell (PC12 cells; c.f. PC12): 126.3 ± 4.8%
Median population fluorescence (PC12 cells; c.f. PC12): 127.4 ± 8.1%
% of cell population with FITC above background (PC12 cells; c.f. PC12 + SC): 115.3 ± 13.4%
Maximal fluorescence per cell of the population (PC12 cells; c.f. PC12 + SC): 123.1 ± 5.2%
Mean fluorescence per FITC-positive cell (PC12 cells; c.f. PC12 + SC): 121.4 ± 5.5%
Median population fluorescence (PC12 cells; c.f. PC12 + SC): 122.5 ± 8.4%
all measured fluorescence parameters of the FITC-positive population (PC12 cells; PC12 cells, compared to control or scrambled peptide-treated cells): increased
c29 concentration at which an increase in median fluorescence was observed (PC12 cells; fixed concentration of NGF-FITC, FIG. 10A): 1 pM
